Laboratory results as given in ChEMBL document CHEMBL1133599, “Inhibitors of tripeptidyl peptidase II. 2. Generation of the first novel lead inhibitor of cholecystokinin-8-inactivating peptidase: a strategy for the design of peptidase inhibitors” (J Med Chem, 2000).
Where a SMILES comes first, the peptide text is derived from it. [ ]: non-standard residue; d: D form. The star is where a group is joined. 2Nal = N[C@@H](Cc1ccc2ccccc2c1)C(=O)O; hPhe = N[C@@H](CCc1ccccc1)C(=O)O; Cha = N[C@@H](CC1CCCCC1)C(=O)O; Phg = N[C@H](C(=O)O)c1ccccc1; Nle = CCCC[C@H](N)C(=O)O; Nva = CCC[CH](N)C(=O)O; Cbz = O=C(OCc1ccccc1)*; Bn = c1ccc(C*)cc1; NHBu = CCCCN*

Target: Tripeptidyl-peptidase 2 (Rattus norvegicus, UniProt Q64560)
Assay: Inhibition potency against Cholecystokinin-8-Inactivating Peptidase (Serine Peptidase).

Sequence of Tripeptidyl-peptidase 2 (Q64560 whole entry): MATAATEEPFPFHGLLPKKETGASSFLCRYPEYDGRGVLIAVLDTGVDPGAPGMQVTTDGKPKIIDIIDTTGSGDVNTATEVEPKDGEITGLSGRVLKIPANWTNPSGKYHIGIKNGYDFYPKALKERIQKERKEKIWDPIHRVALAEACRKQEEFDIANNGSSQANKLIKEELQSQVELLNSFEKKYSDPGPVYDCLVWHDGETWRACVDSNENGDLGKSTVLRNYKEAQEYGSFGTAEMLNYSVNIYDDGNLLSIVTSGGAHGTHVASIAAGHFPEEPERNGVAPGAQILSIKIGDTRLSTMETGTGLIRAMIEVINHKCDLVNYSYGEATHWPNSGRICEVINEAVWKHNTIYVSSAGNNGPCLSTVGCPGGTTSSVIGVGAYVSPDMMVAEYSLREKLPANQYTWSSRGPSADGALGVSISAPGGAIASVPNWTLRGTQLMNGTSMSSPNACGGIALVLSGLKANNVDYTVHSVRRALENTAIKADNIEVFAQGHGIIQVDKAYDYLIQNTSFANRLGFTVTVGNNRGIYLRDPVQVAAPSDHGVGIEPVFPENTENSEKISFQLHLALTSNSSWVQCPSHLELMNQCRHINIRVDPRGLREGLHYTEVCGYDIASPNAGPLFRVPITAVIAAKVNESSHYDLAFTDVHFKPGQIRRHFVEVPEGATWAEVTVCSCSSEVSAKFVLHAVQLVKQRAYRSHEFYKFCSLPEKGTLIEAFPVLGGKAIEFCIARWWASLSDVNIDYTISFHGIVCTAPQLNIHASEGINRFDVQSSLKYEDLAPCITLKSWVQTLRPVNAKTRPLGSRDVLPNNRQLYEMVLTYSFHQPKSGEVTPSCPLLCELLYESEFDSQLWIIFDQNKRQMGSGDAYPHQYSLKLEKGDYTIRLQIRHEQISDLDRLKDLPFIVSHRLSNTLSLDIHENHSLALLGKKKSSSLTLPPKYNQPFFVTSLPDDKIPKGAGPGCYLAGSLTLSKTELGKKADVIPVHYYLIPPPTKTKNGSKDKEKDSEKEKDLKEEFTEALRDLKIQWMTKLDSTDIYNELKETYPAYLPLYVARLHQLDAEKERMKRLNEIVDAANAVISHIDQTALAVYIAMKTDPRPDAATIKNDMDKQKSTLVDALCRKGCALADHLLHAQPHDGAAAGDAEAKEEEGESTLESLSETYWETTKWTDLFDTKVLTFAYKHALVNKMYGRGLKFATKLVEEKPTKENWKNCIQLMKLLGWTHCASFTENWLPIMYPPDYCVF

Ki	SMILES
2000 µM	CSCC[C@@H](NC(=O)[C@@H](N)C(C)C)C(=O)O
1430 µM	CCCC[C@H](NC(=O)[C@@H](N)CCCC)C(=O)O
20 µM	CSCC[C@H](NC(=O)[C@H](Cc1c[nH]c2ccccc12)NC(=O)CN)C(=O)O (H-Gly-Trp-Met-OH)
29 µM	CNC(=O)[C@@H](NC(=O)[C@@H](N)C(C)C)c1ccccc1 (H-Val-[Phg]-NHMe)
> 5000 µM	CCCCOC(=O)N[C@H](C(=O)N[C@@H](CCCC)C(=O)O)C(C)C
1670 µM	CC(C)[C@H](N)C(=O)N[C@H](C(=O)O)C(C)C [VAL-VAL] (H-Val-Val-OH)
80 µM	CC(C)[C@H](N)C(=O)NCc1ccccc1
11 µM	CNC(=O)[C@H](Cc1ccc(O)cc1)NC(=O)[C@@H](N)C(C)C (H-Val-Tyr-NHMe)
1000 µM	CCC[C@H](NC(=O)[C@@H](N)CCC)C(=O)O (H-[Nva]-[Nva]-OH)
29 µM	CCCC[C@H](NC(=O)[C@@H](N)C(C)C)C(=O)NCCCc1ccccc1
860 µM	CCCC[C@H](NC(=O)[C@@H](N)C(C)C)C(=O)O (H-Val-[Nle]-OH)
9000 µM	CC(C)[C@H](N)C(=O)N[C@@H](C)C(=O)O (H-Val-Ala-OH)
14 µM	C[C@H](N)C(=O)N[C@@H](C)C(=O)N[C@@H](C)C(=O)O
> 5000 µM	CC(C)C(NC(=O)C(NC(=O)OCc1ccccc1)C(C)C)C(=O)O (stereo not drawn) (Cbz-Val-Val-OH; configuration not given here)
210 µM	CC(C)C(N)C(=O)NC(Cc1ccc(OCc2ccccc2)cc1)C(=O)O (stereo not drawn) (H-Val-Tyr(Bn)-OH; configuration not given here)
3000 µM	CC(C)[C@H](N)C(=O)N[C@@H](CC1CCCCC1)C(=O)O (H-Val-[Cha]-OH)
3 µM	CCCCNC(=O)[C@H](CCC)NC(=O)[C@@H](N)C(C)C (H-Val-[Nva]-NHBu)
> 500 µM	CCC[C@H](NC(=O)[C@@H](NC(C)=O)C(C)C)C(=O)O (Ac-Val-[Nva]-OH)
230 µM	CCCCOC(=O)[C@H](Cc1ccccc1)NC(=O)[C@@H](N)C(C)C
857 µM	CC(C)[C@H](N)C(=O)N[C@@H](Cc1ccc(O)cc1)C(=O)O (H-Val-Tyr-OH)

Ki	SMILES
570 µM	CC(C)[C@H](N)C(=O)N[C@@H](CCc1ccccc1)C(=O)O (H-Val-[hPhe]-OH)
> 5000 µM	CCC[C@H](NC(=O)[C@@H](NCc1ccccc1)C(C)C)C(=O)O
14 µM	CCCCNC(=O)[C@H](CCCC)NC(=O)[C@@H](N)C(C)C (H-Val-[Nle]-NHBu)
> 3000 µM	CCCCOC(=O)C(CCCC)NC(=O)C(NC(=O)OCc1ccccc1)C(C)C (stereo not drawn)
29 µM	CC(C)[C@H](NC(=O)CN)C(=O)N[C@@H](Cc1ccccc1)C(=O)O (H-Gly-Val-Phe-OH)
470 µM	NCC(=O)N[C@@H](Cc1ccccc1)C(=O)O (H-Gly-Phe-OH)
5000 µM	CC(N)C(=O)NC(C)C(=O)O (stereo not drawn)
57 µM	CCCCNC(=O)[C@H](CC1CCCCC1)NC(=O)[C@@H](N)C(C)C (H-Val-[Cha]-NHBu)
290 µM	CCCCOC(=O)[C@H](CCCC)NC(=O)[C@@H](N)C(C)C
> 3000 µM	CCCC[C@H](NC)C(=O)N[C@@H](CCCC)C(=O)NC
3 µM	C[C@H](N)C(=O)N1CCC[C@H]1C(=O)N[C@@H](C)C(=O)O (H-Ala-Pro-Ala-OH)
1400 µM	C[C@H](N)C(=O)N1CCC[C@H]1C(=O)O (H-Ala-Pro-OH)
> 5000 µM	CCCC[C@H](NC)C(=O)N[C@@H](CCCC)C(=O)OC
28 µM	CCC[C@H](NC(=O)[C@@H](N)C(C)C)C(=O)NC (H-Val-[Nva]-NHMe)
50 µM	CSCC[C@H](NC(=O)[C@H](Cc1ccc(O)cc1)NC(=O)[C@@H](N)CC(=O)O)C(=O)O (H-Asp-Tyr-Met-OH)
9 µM	CCCC[C@H](NC(=O)[C@@H](N)CCCC)C(=O)NC
> 3000 µM	CCCC[C@H](NCc1ccccc1)C(=O)N[C@@H](CCCC)C(=O)NC
1140 µM	C[C@H](N)C(=O)N[C@@H](Cc1ccccc1)C(=O)O
46 µM	CNC(=O)[C@@H](NC(=O)[C@@H](N)C(C)C)C(C)C (H-Val-Val-NHMe)
20 µM	CCCCNC(=O)[C@H](Cc1ccccc1)NC(=O)[C@@H](N)C(C)C (H-Val-Phe-NHBu)

Ki	SMILES
2000 µM	CSCC[C@@H](N)C(=O)N[C@@H](Cc1ccc(O)cc1)C(=O)O
60 µM	CC(C)[C@H](N)C(=O)N[C@@H](Cc1ccc2ccccc2c1)C(=O)O (H-Val-[2Nal]-OH)
110 µM	NCC(=O)NCC(=O)N[C@@H](Cc1ccccc1)C(=O)O (H-Gly-Gly-Phe-OH)
33 µM	CC(C)[C@H](N)C(=O)NCCCCc1ccccc1
114 µM	C[C@H](N)C(=O)N[C@@H](C)C(=O)N1CCC[C@H]1C(=O)N[C@@H](C)C(=O)O (H-AAPA-OH)
2100 µM	CC(C)[C@H](N)C(=O)NC(CO)Cc1ccccc1 (stereo partly drawn)
> 5000 µM	CCCC(NC(=O)C(NC(=O)OCc1ccccc1)C(C)C)C(=O)O (stereo not drawn) (Cbz-Val-[Nva]-OH; configuration not given here)
1 µM	CC[C@H](C)[C@H](N)C(=O)N1CCC[C@H]1C(=O)N[C@H](C(=O)O)[C@@H](C)CC [DIPROTIN A]
260 µM	COC(=O)[C@H](Cc1ccccc1)NC(=O)[C@@H](N)C(C)C (H-Val-Phe-OMe)
66 µM	CCCC[C@H](NC(=O)[C@@H](N)C(C)C)C(=O)NC (H-Val-[Nle]-NHMe)
600 µM	CC(C)[C@H](N)C(=O)N[C@H](C(=O)O)c1ccccc1 (H-Val-[Phg]-OH)
650 µM	NCC(=O)N[C@@H](Cc1c[nH]c2ccccc12)C(=O)O (H-Gly-Trp-OH)
22 µM	CNC(=O)[C@H](Cc1ccccc1)NC(=O)[C@@H](N)C(C)C (H-Val-Phe-NHMe)
433 µM	CCC[C@H](NC(=O)[C@@H](N)C(C)C)C(=O)O (H-Val-[Nva]-OH)
> 5000 µM	CSCC[C@@H](N)C(=O)N[C@H](CCSC)C(=O)O (H-[dM]-[dM]-OH)
86 µM	CC(C)[C@H](N)C(=O)NCCCc1ccccc1
114 µM	CC(C)[C@H](N)C(=O)NCCc1ccccc1
> 5000 µM	N[C@@H](CC(=O)O)C(=O)N[C@@H](Cc1ccc(O)cc1)C(=O)O (H-Asp-Tyr-OH)
